Source: article PMC4945070 (PLoS Neglected Tropical Diseases, 2016)
Where a name gives a salt, the structure may show the parent alone.

Experiments:
[1] = biological target: H. contortus L-AChR1.1 (UNC-63, UNC-38, ACR-8, UNC-29.1) (Haemonchus contortus, UniProt A9XX24+D6MYE9+D6MYF3+D6MYF4); assay: cell-based; set-up: Emax: dose or concentration left out as unconfirmed; conditions: for Max. Inhibition ± S.E.: inhibition of 100 μM ACh current; for Emax at 100 µM: agonists at 100 μM, normalized to 100 μM acetylcholine
Method: (§1) The H. contortus cDNAs encoding AChR subunits and ancillary proteins were available as expression clones in the pTB207 vector and C. elegans expression clones were a gift from T. Boulin.. cRNA synthesis of each construct required NheI-linearized templates and was performed with the mMessage mMachine T7 Kit (Ambion) according to the manufacturer’s instructions. cRNAs were precipitated with lithium chloride and redissolved in RNAse-free water and stored at -80°C. cRNA concentration was determined using a Nanodrop spectrophotometer (Thermo Scientific) and cRNA purity and integrity was assessed by electrophoresis through a 1% gel stained with GreenGlo nucleic acid dye (Denville Scientific Inc.).
(§2) Oocytes were collected from mature Xenopus females according to standard procedures and incubated at 19°C in a ND96 solution (NaCl 96 mM, KCl 2 mM, CaCl2 1.8 mM, MgCl2 1 mM, and HEPES 5 mM, pH 7.3 supplemented with sodium pyruvate 2.5 mM). Defolliculated oocytes were injected into the animal pole with approximately 36 nL of a cRNA mix containing 50 ng/μL of each cRNA in RNAse-free water using the Nanoject system (Drummond Scientific, Broomall, PA). Negative controls consisted of oocytes injected with RNAse-free water. Oocytes were then stored at 19°C in ND96 for 5 days to allow receptor expression. In order to prevent activation of endogenous calcium-activated chloride channels, the oocytes were incubated in ND96 supplemented with 100 μM of the calcium chelator BAPTA-AM, 4h prior to recording.
(§3) Two-electrode voltage-clamp experiments were carried out using a perfusion system connected to a flat RC-1Z chamber (Harvard Apparatus). Glass electrodes were filled with 3M KCl and checked for resistance between 1 and 3 MΩ. The oocyte bath was connected to the ground through a 3 M KCl agar bridge. Agonist and antagonists were dissolved or diluted in recording solution (100 mM NaCl, 2.5 mM KCl, 1 mM CaCl2, 5 mM HEPES, pH 7.3). All measurements were performed using a Geneclamp 500B amplifier and Digidata 1322M (Axon Instruments), oocytes were voltage-clamped at -60 mV. Drug solutions were applied to oocytes by gravity flow using perfusion syringes directly connected to the chamber. Data were collected and analyzed using Clampex 9.2 and Clampfit 9.2 (Axon Instruments, Sunnyvale, CA, USA). Traces were filtered at 30 Hz and analyzed using GraphPad Prism 5.0 software (GraphPad Software, San Diego, CA, USA). Final results are presented as means ± SE.

[2] = biological target: H. contortus L-AChR1.3 (UNC-63, UNC-38, ACR-8, UNC-29.3) (Haemonchus contortus, UniProt A9XX24+D6MYF1+D6MYF3+D6MYF4); assay: cell-based; set-up: Emax: dose or concentration left out as unconfirmed; conditions: for Max Inhibition ± S.E.: inhibition of 100 μM ACh current; for Emax at 100 µM: agonists at 100 μM, normalized to 100 μM acetylcholine
Method: as §1, §2, §3

[3] = biological target: H. contortus L-AChR1.4 (UNC-63, UNC-38, ACR-8, UNC-29.4) (Haemonchus contortus, UniProt A9XX24+D6MYF2+D6MYF3+D6MYF4); assay: cell-based; type: cell-based; set-up: Emax: dose or concentration left out as unconfirmed; conditions: for Emax at 100 µM: agonists at 100 μM, normalized to 100 μM acetylcholine
Method: as §1, §2, §3

[4] = test system: C. elegans L-AChR subunits (Cel-unc-63, Cel-unc-38, Cel-lev-8, Cel-lev-1) with Hco-unc-29 paralog; assay: Two-electrode voltage clamp of C. elegans / H. contortus AChR subunit admixtures in Xenopus oocytes; type: cell-based
Text: To confirm that the LEV sensitivity rescue could be due to the functional incorporation of parasite protein into the C. elegans L-AChR, we injected into Xenopus oocytes, cRNA admixtures of the four essential C. elegans L-AChR subunits: Cel-unc-63, Cel-unc-38, Cel-lev-8 and Cel-lev-1, the three H. contortus accessory proteins: ric-3, unc-50 and unc-74, and the Cel-unc-29 or each Hco-unc-29 paralog in turn. Reconstitution of the C. elegans L-AChR with Cel-unc-29 produced functional channels as previously described, confirming that the H. contortus accessory proteins are functional between species. Omitting unc-29 produced no response, so any current produced using parasite genes must involve their incorporation into a functional L-AChR. […] UNC-29.1 produced an average of 500 μA currents, while the other three produced reproducible currents below 200 nA with UNC-29.2 producing the smallest response on average (S1 Fig).
as §1, with “Inc.). […]” for “Inc.).”
(§4) Two-electrode voltage-clamp experiments were carried out using a perfusion system connected to a flat RC-1Z chamber (Harvard Apparatus). […] Data were collected and analyzed using Clampex 9.2 and Clampfit 9.2 (Axon Instruments, Sunnyvale, CA, USA). Traces were filtered at 30 Hz and analyzed using GraphPad Prism 5.0 software (GraphPad Software, San Diego, CA, USA). […]

[5] = test system: H. contortus L-AChR1.2 (UNC-63, UNC-38, ACR-8, UNC-29.2); type: cell-based, Haemonchus contortus
Method: as §1, §2
as §4, with “Apparatus). Glass electrodes were filled with 3M KCl and checked for resistance between 1 and 3 MΩ. The oocyte bath was connected to the ground through a 3 M KCl agar bridge.” for “Apparatus).”

[6] = biological target: H. contortus L-AChR1.1 with added UNC-29.2 (Haemonchus contortus, UniProt A9XX24+D6MYE9+D6MYF3+D6MYF4); assay: Two-electrode voltage clamp of L-AChR1.1 supplemented with unc-29.2 cRNA in Xenopus oocytes; type: cell-based
Text: Typically, such a situation can be identified by a change in the pharmacological properties of a receptor with addition of the second subunit. To address this, we examined the possibility that UNC-29.2 may interfere with or modify the properties of the reconstituted L-AChR1.1. We prepared oocytes injected with cRNAs to express the H. contortus L-AChR1.1 and supplemented this with an increasing (0.2, 1, 5 times) concentration of cRNA for UNC-29.2 relative to UNC-29.1.
as §1, §2, §3

[7] = L-AChR1.1, dTC 100 μM, DHβE 10 μM, MECA 30 μM
[8] = L-AChR1.3, dTC 100 μM, DHβE 10 μM, MECA 30 μM
[9] = read-out: blocking of ACh elicited currents
[10] = L-AChR1.1, read-out: Max. Current ± S.E.
[11] = L-AChR1.3, read-out: Max. Current ± S.E.
[12] = L-AChR1.4, read-out: Max. Current ± S.E.

Compound: Br.CO[C@H]1CC=C2CCN3CCC4=C(CC(=O)OC4)[C@]23C1 [DHßE, Dihydro-berythroidine hydrobromide]
- blocking of ACh elicited currents ([1]; L-AChR1.1, dTC 100 μM, DHβE 10 μM, MECA 30 μM, 100 μM ACh): weak average inhibition
- Max. Inhibition ± S.E. [1, 7]: 15.98 ± 2.16
- blocking of ACh elicited currents ([2]; L-AChR1.3, dTC 100 μM, DHβE 10 μM, MECA 30 μM, 100 μM ACh): weak average inhibition
- Max Inhibition ± S.E. [2, 8]: 23.55 ± 1.94
- blocking of ACh elicited currents ([3]; L-AChR1.4, dTC 100 μM, DHβE 10 μM, MECA 30 μM, 100 μM ACh): weak average inhibition
- Max Inhibition ± S.E. ([3]; L-AChR1.4, inhibition of 100 μM ACh current, dTC 100 μM, DHβE 10 μM, MECA 30 μM): 16.51 ± 5.73

Compound: CNC1(C)C2CCC(C2)C1(C)C (stereo not shown) [Mecamylamine, mecamylamine hydrochloride]
- MECA inhibition (summary) ([1]; L-AChR1.1): Full Inhibition
- Max. Inhibition ± S.E. [1, 7]: 99.91 ± 0.09
- inhibition at 30 µM [1, 9]: 99.9 ± 0.1%
- MECA inhibition (summary) ([2]; L-AChR1.3): Partial Inhibition
- Max Inhibition ± S.E. [2, 8]: 56.87 ± 3.18
- inhibition at 30 µM [2, 9]: 56.9 ± 3.2%
- MECA inhibition (summary) ([3]; L-AChR1.4): Full Inhibition
- inhibition at 30 µM [3, 9]: 96.4 ± 1.9%

Compound: CC(=O)OCC[N+](C)(C)C [ACh, Acetylcholine chloride]
- Max ACh Current ([1]; L-AChR1.1 (Hco-UNC-29.1)): ~1.5 μA
- Hill ([1]; L-AChR1.1, Hill coefficient of concentration-response curve): 0.88 ± 0.05
- Emax at 100 µM [1, 10]: 100%
- Max ACh Current ([2]; L-AChR1.3 (Hco-UNC-29.3)): ~1.5 μA
- Hill ([2]; L-AChR1.3, Hill coefficient of concentration-response curve): 0.89 ± 0.05
- Emax at 100 µM [2, 11]: 100%
- average current on perfusion of 100 μM ACh ([4]; admixture with UNC-29.1): 500 μA
- current on perfusion of 100 μM ACh ([4]; admixtures with the other three paralogs (UNC-29.2, UNC-29.3, UNC-29.4)): below 200 nA
- current in response to 100 μM perfusion ([5]; UNC-29.1 replaced by UNC-29.2, n = 18): failed to produce any detectable current
- Max ACh Current ([5]; receptor with Hco-UNC-29.2): 0 μA
- Max ACh Current ([3]; L-AChR1.4 (Hco-UNC-29.4)): ~500 nA
- Hill ([3]; L-AChR1.4, Hill coefficient of concentration-response curve): 1.12 ± 0.04
- Emax at 100 µM [3, 12]: 100%
- effect of unc-29.2 cRNA on the pharmacological response ([6]; 0.2, 1, 5 times unc-29.2 cRNA relative to UNC-29.1): no effect
- Hill ([6]; 29.1 : 29.2 cRNA 1 : 0.2): 0.91 ± 0.08
- Hill ([6]; 29.1 : 29.2 cRNA 1 : 1): 0.96 ± 0.13
- Hill ([6]; 29.1 : 29.2 cRNA 1 : 5): 1.09 ± 0.10

Compound: CN1CCC[C@H]1c1cccnc1 [Nicotine, (-)-nicotine hydrogen tartrate]
- Emax ([1]; read-out: Max. Current ± S.E.): 4.7 ± 1.05%
- Emax ([2]; read-out: Max. Current ± S.E.): 6.79 ± 1.46%
- Emax ([3]; read-out: Max. Current ± S.E.): 1.52 ± 0.47%

Compound: C[N+](C)(CCOc1ccccc1)Cc1ccccc1 [Bephenium, bephenium hydroxynaphtoate]
- Emax at 100 µM [1, 10]: 13.9 ± 1.7%
- Emax at 100 µM [2, 11]: 9.59 ± 0.83%
- Emax at 100 µM [3, 12]: 6.45 ± 0.84%
